Series [1] addresses T1, p53 (mutant R248W DBD-derived peptide pR248W) (Homo sapiens, UniProt P04637, R248W).
T1 construct: gene TP53
Put plainly: intrinsic tryptophan fluorescence quenching titration (also HSQC NMR on R248W DBD and CETSA in MIA PaCa-2 cells). Format: binding.

A further series deals with T2, p53 (mutant R175H) (Homo sapiens, UniProt P04637, R175H).
T2 construct: gene TP53; endogenous mutant p53 in SK-BR-3 cells
Nature of the series: CETSA in SK-BR-3 cells (Tm […] to […] °C at […]). Format: cell-based.

Series [2] deals with T1, p53 (mutant R248W DBD-derived peptide pR248W). Nature of the series: intrinsic tryptophan fluorescence quenching titration (weak; no CETSA stabilization of R248W). Format: binding.
Series [3] concerns the molecule itself. Put plainly: thioflavin T (ThT) amyloid aggregation kinetics; 25 uM peptide alone in PBS with 50 uM ThT, shaking, 37 °C, fluorescence every 5 min; self-assembly into amyloid.

The values that follow come from PMC8233319, “Protein mimetic amyloid inhibitor potently abrogates cancer-associated mutant p53 aggregation and restores tumor suppressor function” (Nature Communications, 2021).

In general, Kd refers to the constant that tells how readily two partners part at equilibrium. A higher Kd goes with lower affinity. `CCCCOc1nc(C(=O)Nc2ccc(C(=O)Nc3ccc(C(=O)OC)nc3OCCCN)nc2OCCCN)ccc1[N+](=O)[O-]` [ADH-6]: in series [1], the Kd came out at 0.366 ± 0.013 µM. Further, the “CETSA in SK-BR-3 cells (Tm 38.8 to 45.1 °C at 5 μM)” value at p53 (mutant R175H) was found to be 45.1 ± 1.2 °C.
In series [2], `COC(=O)c1ccc(NC(=O)c2ccc(NC(=O)c3ccc([N+](=O)[O-])c(OCC(=O)O)n3)c(OCc3ccccc3)n2)c(OCC(=O)O)n1` [ADH-1] yielded a Kd of 15.4 ± 0.8 µM.

B1: pWT, WT p53 DBD-derived peptide (residues 248-273) (peptide, UniProt P04637 248-273, looked up)
peptide: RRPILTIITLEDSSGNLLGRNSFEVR
notes: source: synthetic peptide (Selleck Chemicals, Fmoc; purified in house by reverse-phase HPLC)
In the case of B1, the binding result in series [3] is on record as “binds”.
